# Source: US4656178A (priority 1985, dated 1987)
# Structures can show the parent of a compound that is named as a salt. Where two headings read alike, the source gives them in different places.
# What was measured:
# [1] = test system: aconitine arrhythmia; assay: animal or person; format: in vivo, rats; conditions: for perdition of narcotized rats prior to administration of aconitine: doses of 20 mg/kg and more; for duration of prevention of aconitine arrhythmia: doses of 5-10 mg/kg; for antiarrhythmic index (LD50/ED50): prophylactic effect, aconitine arrhythmia
# Description: The assessment of the antiarrhythmic activity of the preparation was effected in acute and chronical experiments on rats, rabbits, cats and dogs. Various experimental models of arrhythmia were also used.
# (§1) The atrioventricular arrhythmia caused by aconitine is one of the most reliable models for forecasting the efficiency of the antiarrhythmic action of the novel preparation in clinics. The experiments were conducted on both narcotized and non-narcotized animals. The preparation was administered per os, intramuscularly, intraperitoneally and intravenously 5 to 15 minutes prior to or 3-5 minutes after the administration of aconitine.
# In doses of 0.2-0.5 mg/kg the preparation of this invention prevents the appearance of aconitine arrhythmia in 100% of the rats. […] Under similar experimental conditions a preliminary administration of novocainamide in the dose of 60 mg/kg intravenously produced an antiarrhythmic effect in 50% of the animals.
# [2] = test system: aconitine arrhythmia; format: in vivo, rats; conditions: for efficacy against developing aconitine arrhythmia: similar conditions, dose not stated
# Description: as §1
# The antiarrhythmic activity of the pharmaceutical composition according to the present invention upon administration thereof against the background of a developing aconitine arrhythmia (therapeutic effect) was studied on 110 narcotized rats. The preparation was intravenously administered at intervals of 3-6 minutes against the background of the originated arrhythmia.
# [3] = test system: arrhythmia caused by electrical irritation; assay: arrhythmia caused by electrical irritation of the right auricle and apex of the left ventricle; format: in vivo, dogs and cats; conditions: for onset of antiarrhythmic effect: after intravenous administration; for bradycardia / reduction of arterial pressure: all tested doses
# [4] = test system: cardiac arrhythmia caused by ligation of the descending branch of the left coronary artery; assay: cardiac arrhythmia caused by ligation of the descending branch of the left coronary artery (Harris method) in dogs; format: in vivo
# Description: The effect of the preparation according to the present invention on the cardiac arrhythmia caused by ligation of the descending branch of the left coronary artery by the Harris method was studied in experiments on dogs. The preparation according to the present invention was intravenously administered on the first and second post-operative days. Preliminarily, prior to every experiment 30 to 45 minutes before the administration of the preparation the background changes of the dogs' electrocardiogram (ECG) were recorded. […] In 40% thereof a full suppression of ectopic contractions was noticed for 3-3.5 hours, whereafter arrhythmia appeared with the intensity thereof not reaching the initial background during 7 hours.
# [5] = test system: cardiac conductive system; format: in vivo, narcotized rats, cats, intact rabbits and dogs; conditions: for rhythm of cardiac contractions: high doses
# Source text: To investigate the character of the effect produced on the functions of the cardiac conductive system by the preparation according to the present invention, the ECG changes appearing in narcotized rats, cats, intact rabbits and dogs under the action of the preparation of this invention were studied. […] The effect of the preparation is retained for a long time.
# [6] = test system: cardiac arrhythmia induced by barium chloride; assay: cardiac arrhythmia induced by barium chloride; format: in vivo, narcotized rats and intact rabbits
# Description: The study of the antiarrhythmic activity of the preparation according to the present invention on a model of cardiac arrhythmia induced by barium chloride was carried out on 56 narcotized rats and 16 intact rabbits. The preparation of the present invention in the dose of 0.1 mg/kg injected 10 minutes prior to administration of barium prevented the development of arrhythmia in 86.6% of the animals.
# [7] = infiltration anesthesia in rabbits (intracutaneous); format: in vivo; conditions: 0.5% solution
# Description: The local anesthetic effect of the preparation was studied on 14 intact rabbits. […] The results of the experiments on determination of the ability of the preparation to cause infiltration anesthesia have shown that 10-15 minutes after intracutaneous administration, to rabbits, of 0.01-0.05% and 0.1% solutions of the preparation anesthesia occurs which is characterized by an increased threshold of a pain irritation; the duration of the effect is 20 to 48 hours. Under the same conditions of the experiment, the local anesthetic effect of a 0.5% solution of novocaine lasts for 90 minutes on the average.
# [8] = test system: frog's heart; assay: amplitude of cardiac contractions of isolated frog's heart (Schtraube)
# Source text: To find out a negative inotropic effect on the heart tissue, two series of experiments have been carried out:
# (1) the study of the effect of the preparation of this invention on the amplitude of the cardiac contractions of a frog's heart isolated according to Schtraube;
# [9] = test system: cardiotoxic effect of the preparation; assay: sodium bicarbonate at cardiotoxic effect of the preparation in dogs
structure (smiles),measurement,setting,value
COc1ccc(CCN(C)CCCC(C#N)(c2ccc(OC)c(OC)c2)C(C)C)cc1OC (stereo not drawn) [isoptin],prevention of aconitine arrhythmia,[1]; doses of 0.1-2.5 mg/kg,did not prevent the development of aconitine arrhythmia
CCN(CC)CC(=O)Nc1c(C)cccc1C [lidocaine],perdition of narcotized rats prior to administration of aconitine,[1],perdition of a portion of the narcotized rats
same,duration of prevention of aconitine arrhythmia,[1],3 to 5 min
same,duration of arrhythmia-arresting effect,"[2]; 5-10 mg/kg, followed by development of arrhythmia",0.5 to 3 min
"CCN(CC)CCNC(=O)c1ccc(N)cc1 [novocainamide, β-diethylaminoethylamide hydrochloride of p-aminobenzoic acid]",animals with antiarrhythmic effect,[3]; 10 mg/kg,40%
same,duration of antiarrhythmic effect,[3]; 10 mg/kg,2 to 5 min
same,duration of antiarrhythmic effect,[3]; 20-30 mg/kg,20 to 25 min
same,onset of antiarrhythmic effect,[3],1.0 to 1.5 min
same,bradycardia,[3],bradycardia
same,reduction of arterial pressure,[3],20-70 mm Hg
same,duration of antiarrhythmic effect,[4]; 40-50 mg/kg,4 to 7 min
same,duration of antiarrhythmic effect,[4]; 70-80 mg/kg,30 to 60 min
same,dose producing the antiarrhythmic effect,"[4]; dog, in vivo",40 to 50 mg/kg
same,rhythm of cardiac contractions,[5],sharp disturbances of the rhythm of cardiac contractions
same,"antiarrhythmic activity, barium chloride model",[6]; comparison with preparation and quinidine,weakest antiarrhythmic activity
same,animals with antiarrhythmic effect,"[1]; 60 mg/kg intravenously, preliminary administration",50%
same,antiarrhythmic index (LD50/ED50),[1],2.3
same,rats with restored normal sinus rhythm,[2]; 20 mg/kg,3 rats out of 6
same,duration of restored normal sinus rhythm (average),"[2]; 20 mg/kg, then stable arrhythmia appeared again",~10 min
same,animals with antiarrhythmic effect,[2]; 40 mg/kg,83.3%
same,"rats with effect only during the first 20 minutes, then stable arrhythmia reappeared",[2]; 40 mg/kg,50%
same,"duration of effect, after which stable arrhythmia reappeared","[2]; 40 mg/kg, in 50% of the rats",20 min
same,antiarrhythmic index (LD50/ED50),[2]; against background of developing aconitine arrhythmia,6.9
"CCN(CC)CCOC(=O)c1ccc(N)cc1 [novocaine, reference compound]",duration of local anesthetic effect (average),[7],~90 min
"CC(C)NCC(O)COc1cccc2ccccc12 (stereo not drawn) [obzidan, propranolol]",animals in which arrhythmia was developed (after retardation),[1]; 5 mg/kg,60%
same,retardation of the time of appearance of aconitine arrhythmia,"[1]; 5 mg/kg, in all test rats",5 to 8 min
same,efficacy against developing aconitine arrhythmia,[2],inefficient
C=C[C@H]1C[N@@]2CC[C@H]1C[C@@H]2[C@@H](O)c1ccnc2ccc(OC)cc12 [quinidine],animals with antiarrhythmic effect,[3]; 10 mg/kg,30%
same,duration of antiarrhythmic effect,[3]; 10 mg/kg,2 to 5 min
same,duration of antiarrhythmic effect,[3]; 20-30 mg/kg,20 to 25 min
same,onset of antiarrhythmic effect,[3],2 to 3 min
same,bradycardia,[3],bradycardia
same,reduction of arterial pressure,[3],20-70 mm Hg
same,negative inotropic effect compared with the preparation,[8],considerably superior to the preparation of the present invention
same,effect on isolated heart,[8]; concentration of 10^-4 to 3.10^-4 g/ml,"along with a sharp inhibition of the amplitude of cardiac contractions, arrhythmia"
same,effect on cardiac arrhythmia,[4]; 5-10 mg/kg,weak effect
same,rhythm of cardiac contractions,[5],sharp disturbances of the rhythm of cardiac contractions
same,antiarrhythmic effect relative to the preparation,[6]; 10 mg/kg,approximately corresponded to the antiarrhythmic effect produced by the preparation according to the present invention in the dose of 0.1 mg/kg
same,animals with antiarrhythmic effect,[1]; 20 mg/kg,50%
same,antiarrhythmic index (LD50/ED50),[1],2.75
same,antiarrhythmic activity against developing aconitine arrhythmia,"[2]; doses of 2.5, 5, 10, 20 mg/kg",no antiarrhythmic activity
O=C(O)O [sodium bicarbonate],effect on ECG changes caused by toxic doses of the preparation,"[9]; 4% solution, 100 to 200 ml",equalizes distinctly pronounced electrocardiographic changes
same,effect on reduced arterial pressure in overdosing of the preparation,[9]; infusion of sodium bicarbonate,levelled
same,time to equalization of ECG changes caused by toxic doses of the preparation,"[9]; intravenous infusion of 4% solution, 100 to 200 ml, after beginning of infusion",15 to 30 min
same,effect on the inhibition of conductivity by the preparation,[5]; in vivo,diminishes the inhibiting effect of the preparation on conductivity
CCN(CC)CC(=O)Nc1c(C)cc(C)cc1C [trimecaine],perdition of narcotized rats prior to administration of aconitine,[1],perdition of a portion of the narcotized rats
same,duration of prevention of aconitine arrhythmia,[1],3 to 5 min
same,efficacy against developing aconitine arrhythmia,[2],inefficient
